Experiments:
IGF1R = molecular target: T1, IGF1R (Homo sapiens, UniProt P08069); assay: IGF1R kinase assay; type: biochemical; settings: Table 1; read-out: IGF1R IC50
T1 construct: 6×His- or GST-tagged kinase domain fragments of the corresponding RTKs expressed in baculovirus system; host or cells: baculovirus system
Protocol: To determine inhibition of several tyrosine kinases, such as IGF1R, InsR, Alk, TrkA and Jak2, kinase assays are conducted using either Kinase-Glo (Promega) or AlphaScreen (PerkinElmer) kinase assay platforms. The Kinase-Glo Luminescent Kinase Assay is a homogeneous method for measuring kinase activity by determining the amount of ATP remaining after a kinase reaction. The luminescent signal is proportional to the amount of ATP and inversely proportional to the amount of kinase activity. Tyrosine kinase PT66 AlphaScreen Assay is a high-sensitivity homogeneous, anti-phosphotyrosine antibody-mediated luminescent proximity method measuring incorporation of phosphate in synthetic poly(Glu-Tyr) substrate. The kinase preparations used consist of purified recombinant, 6×His- or GST-tagged kinase domain fragments of the corresponding RTKs expressed in baculovirus system.
Compounds with a range of concentrations 40 μM, 20 μM, 10 μM, 5 μM, 2.5 μM, 1.25 μM, 0.625 μM, 0.3125 μM, 0.15625 μM and 0.078125 μM were incubated with NPM-ALK, which was produced in insect cells as a 6×HIS-tagged fusion protein and purified using nickel-charged resin chromatography, for 30 minutes at RT in the presence of 10 μM ATP and 7.0 ng biotinylated poly-GT. A 1:1 mixture of […] and donor beads was then added to the reaction and incubated for an additional 60 minutes at RT. The assay was conducted on a MultiPROBE liquid handling workstation (PerkinElmer) in a 384-well plate format with a total reaction volume of 40 μL per well. Working stocks of all compounds were dissolved in 100% DMSO and serial dilutions of the compounds were performed using kinase buffer (50 mM Tris-HCl (pH 7.5), 5 mM MgCl2, 5 mM MnCl2, 2 mM DTT (added freshly before use), 0.01% Tween-20) containing 5% DMSO. […] Data were collected as optical readings at 520-680 nm on a Fusion™ microplate analyzer (PerkinElmer), and IC50 and Ki values calculated using PRISM3.0 software (GraphPad Software, Inc., San Diego, Calif.). The same assay was also used with minor modifications to assess the IC50 and Ki values for selected compounds against five other tyrosine kinases (IRK, IGF1R, Flt3, Abl, Src), all of which were purchased from commercial vendors. PolyGT-Biotin was bought from CIS Biointernational Cat. #61GT0BLD; ATP—from Sigma Cat. # A7699; sodium orthovanadate—from Sigma Cat. #S-6508; phosphotyrosine (PT66) assay kit from PerkinElmer Cat. #6760602M; automated workstation tips (20 μL): PerkinElmer Cat. #6000657; and OptiPlate-384 (white)—from PerkinElmer Cat. #6007299.

ALK = ALK (Homo sapiens, UniProt Q9UM73); assay: ALK kinase assay (Kinase-Glo / AlphaScreen, purified NPM-ALK); type: biochemical; parameters: fused to the complete intracytoplasmic portion of ALK containing the functional tyrosine kinase domain; 6xHis; made in house; host or cells: insect cells; the other entry of the earlier key: NPM1 (P06748, Nucleophosmin); settings: Table 1; read-out: ALK IC50
ALK, sequence (Q9UM73 with tags, fused parts or gaps): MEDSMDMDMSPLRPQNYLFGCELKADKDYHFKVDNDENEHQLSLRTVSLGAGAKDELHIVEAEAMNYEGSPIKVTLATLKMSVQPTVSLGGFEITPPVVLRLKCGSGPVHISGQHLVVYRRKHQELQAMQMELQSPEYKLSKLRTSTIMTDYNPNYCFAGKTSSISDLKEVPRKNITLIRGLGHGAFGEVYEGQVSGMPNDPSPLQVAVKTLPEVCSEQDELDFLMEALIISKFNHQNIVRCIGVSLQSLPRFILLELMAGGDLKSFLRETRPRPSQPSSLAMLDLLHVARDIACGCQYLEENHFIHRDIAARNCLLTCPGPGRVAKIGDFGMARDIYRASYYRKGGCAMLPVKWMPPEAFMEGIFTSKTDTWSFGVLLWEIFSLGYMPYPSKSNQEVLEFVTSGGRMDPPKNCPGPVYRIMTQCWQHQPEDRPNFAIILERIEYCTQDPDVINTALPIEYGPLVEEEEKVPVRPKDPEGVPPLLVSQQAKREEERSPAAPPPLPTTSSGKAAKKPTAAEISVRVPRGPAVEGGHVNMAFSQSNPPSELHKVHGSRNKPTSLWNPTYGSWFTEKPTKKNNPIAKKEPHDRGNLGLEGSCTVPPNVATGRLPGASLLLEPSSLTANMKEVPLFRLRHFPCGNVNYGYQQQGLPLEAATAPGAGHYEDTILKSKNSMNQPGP

T1 sequence (P08069 999-1274 limits assumed): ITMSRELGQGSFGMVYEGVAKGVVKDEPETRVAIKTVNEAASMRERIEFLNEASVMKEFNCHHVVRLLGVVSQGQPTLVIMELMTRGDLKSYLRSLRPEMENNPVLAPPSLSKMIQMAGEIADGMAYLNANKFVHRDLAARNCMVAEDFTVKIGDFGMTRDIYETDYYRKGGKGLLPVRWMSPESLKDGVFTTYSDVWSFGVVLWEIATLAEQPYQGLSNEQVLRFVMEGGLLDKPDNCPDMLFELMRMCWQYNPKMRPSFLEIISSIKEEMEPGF

Compound | IC50 (IGF1R) | IC50 (ALK)
COc1ccc(-c2ccc(CC(C)Nc3cc[nH]c(=O)c3-c3nc4cc5c(cc4[nH]3)C(=O)N(CCCN3CCCC3)C5)s2)cc1 (centres unmarked) | > 1000 nM | > 1000 nM
Cc1cc(CC(C)Nc2cc[nH]c(=O)c2-c2nc3cc4c(cc3[nH]2)C(=O)N(CCCN2CCCC2)C4)sc1C (centres unmarked) | 250 to 1000 nM | > 1000 nM
CC(Cc1ccc(-c2ccccc2)s1)Nc1cc[nH]c(=O)c1-c1nc2cc3c(cc2[nH]1)C(=O)N(CCCN1CCCC1)C3 (centres unmarked) | > 1000 nM | > 1000 nM
C[C@@H](Cc1sccc1Cl)Nc1cc[nH]c(=O)c1-c1nc2cc3c(cc2[nH]1)C(=O)N(CCN1CCCC1)C3=O | 250 to 1000 nM | 100 to 250 nM
Cc1c(C[C@H](C)Nc2cc[nH]c(=O)c2-c2nc3cc4c(cc3[nH]2)CN(CCN(C)C)C4=O)ccc(F)c1F | > 1000 nM | > 1000 nM
C[C@@H](Cc1cccs1)Nc1cc[nH]c(=O)c1-c1nc2cc3c(cc2[nH]1)C(=O)N(CCCN1CCCC1)C3=O | > 1000 nM | 100 to 250 nM
C[C@@H](Cc1cccs1)Nc1cc[nH]c(=O)c1-c1nc2cc3c(cc2[nH]1)C(=O)N(CCN1CCCC1)C3=O | 250 to 1000 nM | 100 to 250 nM
Cc1c(C[C@H](C)Nc2cc[nH]c(=O)c2-c2nc3cc4c(cc3[nH]2)CN(CCN2CCCC2)C4=O)ccc(F)c1F | > 1000 nM | > 1000 nM
C[C@@H](Cc1ccccc1F)Nc1cc[nH]c(=O)c1-c1nc2cc3c(cc2[nH]1)CN(CCN1CCCC1)C3=O | 250 to 1000 nM | 100 to 250 nM
CCC(Cc1cccs1)Nc1cc[nH]c(=O)c1-c1nc2cc3c(cc2[nH]1)C(=O)N(CCCN1CCCC1)C3 (centres unmarked) |  | > 1000 nM
Cc1ccsc1CC(C)Nc1cc[nH]c(=O)c1-c1nc2cc3c(cc2[nH]1)C(=O)N(CCCN1CCCC1)C3 (centres unmarked) | 100 to 250 nM | 100 to 250 nM
Cc1cc(C)c(CC(C)Nc2cc[nH]c(=O)c2-c2nc3cc4c(cc3[nH]2)C(=O)N(CCCN2CCCC2)C4)s1 (centres unmarked) | 100 to 250 nM | > 1000 nM
CCN1CCC[C@H]1CN1Cc2cc3nc(-c4c(N[C@@H](C)Cc5sccc5C)cc[nH]c4=O)[nH]c3cc2C1=O | 100 to 250 nM | 10 to 100 nM
CNCCN1Cc2cc3[nH]c(-c4c(N[C@@H](C)Cc5cc(F)ccc5C)cc[nH]c4=O)nc3cc2C1=O [drawing 348] | 10 to 100 nM | 250 to 1000 nM
CC(Cc1cccs1)Nc1cc[nH]c(=O)c1-c1nc2cc3c(cc2[nH]1)CN(CCCN1CCCC1)C3=O (centres unmarked) | 250 to 1000 nM | 100 to 250 nM
CC(Cc1ccc(Cl)s1)Nc1cc[nH]c(=O)c1-c1nc2cc3c(cc2[nH]1)C(=O)N(CCCN1CCCC1)C3 (centres unmarked) | 250 to 1000 nM | 250 to 1000 nM
C[C@H](CN1C(=O)c2cc3nc(-c4c(N[C@@H](C)Cc5sccc5Cl)cc[nH]c4=O)[nH]c3cc2C1=O)N(C)C | > 1000 nM | 10 to 100 nM
Cc1noc(C)c1CC(C)Nc1cc[nH]c(=O)c1-c1nc2cc3c(cc2[nH]1)C(=O)N(CCCN1CCCC1)C3=O (centres unmarked) | > 1000 nM | > 1000 nM
Cc1ccccc1C[C@H](C)Nc1cc[nH]c(=O)c1-c1nc2cc3c(cc2[nH]1)CN(CCN1CCCC1)C3=O | 250 to 1000 nM | 10 to 100 nM
Cc1ccccc1C[C@H](C)Nc1cc[nH]c(=O)c1-c1nc2cc3c(cc2[nH]1)C(=O)N(CCN1CCCC1)C3=O | > 1000 nM | 10 to 100 nM
COc1ccsc1C[C@H](C)Nc1cc[nH]c(=O)c1-c1nc2cc3c(cc2[nH]1)CN(CCCN1CCCC1)C3=O | 250 to 1000 nM | 250 to 1000 nM
Cc1ccsc1C[C@H](C)Nc1cc[nH]c(=O)c1-c1nc2cc3c(cc2[nH]1)C(=O)N(CC(C)CN1CCCC1)C3 (some centres unmarked) | 250 to 1000 nM | 10 to 100 nM
C[C@@H](Cc1ccco1)Nc1cc[nH]c(=O)c1-c1nc2cc3c(cc2[nH]1)C(=O)N(CCN1CCCC1)C3=O | > 1000 nM | 100 to 250 nM

Compound | IC50 (IGF1R) | IC50 (ALK)
Cc1c(F)cc(F)cc1C[C@H](C)Nc1cc[nH]c(=O)c1-c1nc2cc3c(cc2[nH]1)CN(CCN(C)C)C3=O | 250 to 1000 nM | 100 to 250 nM
C[C@@H](Cc1cccs1)Nc1cc[nH]c(=O)c1-c1nc2cc3c(cc2[nH]1)C(=O)N(C1CCN(C)CC1)C3 | 10 to 100 nM | 100 to 250 nM
C[C@H](CN(C)C)N1Cc2cc3nc(-c4c(N[C@@H](C)Cc5sccc5Cl)cc[nH]c4=O)[nH]c3cc2C1=O | 100 to 250 nM | 10 to 100 nM
CCN1CCC[C@@H]1CN1Cc2cc3nc(-c4c(N[C@@H](C)Cc5sccc5C)cc[nH]c4=O)[nH]c3cc2C1=O | 250 to 1000 nM | 100 to 250 nM
C[C@@H](Cc1cccs1)Nc1cc[nH]c(=O)c1-c1nc2cc3c(cc2[nH]1)C(=O)N(CCCCN1CCCC1)C3 | > 1000 nM | 100 to 250 nM
C[C@@H](Cc1sccc1Cl)Nc1cc[nH]c(=O)c1-c1nc2cc3c(cc2[nH]1)C(=O)N([C@@H](C)CN(C)C)C3=O | > 1000 nM | 10 to 100 nM
Cc1ccsc1C[C@H](C)Nc1cc[nH]c(=O)c1-c1nc2cc3c(cc2[nH]1)C(=O)N(CCN(C)CCS(C)(=O)=O)C3 | 250 to 1000 nM | 10 to 100 nM
COC[C@H](Cc1ccccc1)Nc1cc[nH]c(=O)c1-c1nc2cc3c(cc2[nH]1)C(=O)N(C1CCN(C)CC1)C3=O |  | > 1000 nM
C[C@@H](Cc1ccco1)Nc1cc[nH]c(=O)c1-c1nc2cc3c(cc2[nH]1)CN(CCN1CCCC1)C3=O | 250 to 1000 nM | 100 to 250 nM
CC(Cc1cc2ccccc2s1)Nc1cc[nH]c(=O)c1-c1nc2cc3c(cc2[nH]1)C(=O)N(CCCN1CCCC1)C3 (centres unmarked) | > 1000 nM | > 1000 nM
C[C@H](Cc1cccs1)Nc1cc[nH]c(=O)c1-c1nc2cc3c(c(Cl)c2[nH]1)C(=O)N(C1CCN(C)CC1)C3 | 100 to 250 nM | 250 to 1000 nM
C[C@H](CN(C)C)N1C(=O)c2cc3nc(-c4c(N[C@@H](C)Cc5sccc5Cl)cc[nH]c4=O)[nH]c3cc2C1=O | > 1000 nM | 10 to 100 nM
C[C@H](CN1Cc2cc3nc(-c4c(N[C@@H](C)Cc5sccc5Cl)cc[nH]c4=O)[nH]c3cc2C1=O)N(C)C | 250 to 1000 nM | < 10 nM
C[C@@H](Cc1sccc1Cl)Nc1cc[nH]c(=O)c1-c1nc2cc3c(cc2[nH]1)C(=O)N(C[C@H](C)N(C)C)C3=O | > 1000 nM | 10 to 100 nM
Cc1ccsc1C[C@H](C)Nc1cc[nH]c(=O)c1-c1nc2cc3c(cc2[nH]1)CN(CCN1CCC[C@@H]1C)C3=O | 250 to 1000 nM | 100 to 250 nM
CCc1ccc(CC(C)Nc2cc[nH]c(=O)c2-c2nc3cc4c(cc3[nH]2)C(=O)N(CCCN2CCCC2)C4)s1 (centres unmarked) | > 1000 nM | > 1000 nM
Cc1csc(CC(C)Nc2cc[nH]c(=O)c2-c2nc3cc4c(cc3[nH]2)C(=O)N(CCCN2CCCC2)C4)c1 (centres unmarked) | 250 to 1000 nM | 250 to 1000 nM
Cc1ccsc1C[C@H](C)Nc1cc[nH]c(=O)c1-c1nc2cc3c(cc2[nH]1)C(=O)N(CCN(C)CCS(C)(=O)=O)C3=O | > 1000 nM | 100 to 250 nM
C[C@@H](Cc1cc(F)cc(F)c1F)Nc1cc[nH]c(=O)c1-c1nc2cc3c(cc2[nH]1)CN(CCN1CCCC1)C3 | 250 to 1000 nM | 250 to 1000 nM
CN1CCC(N2C(=O)c3cc4nc(-c5c(N[C@H](CO)Cc6ccccc6)cc[nH]c5=O)[nH]c4cc3C2=O)CC1 |  | > 1000 nM
CC(Cc1ccsc1)Nc1cc[nH]c(=O)c1-c1nc2cc3c(cc2[nH]1)C(=O)N(CCCN1CCCC1)C3=O (centres unmarked) |  | 100 to 250 nM
COC[C@@H](Cc1ccccc1)Nc1cc[nH]c(=O)c1-c1nc2cc3c(cc2[nH]1)C(=O)N(C1CCN(C)CC1)C3=O |  | > 1000 nM
CCC(Cc1cccs1)Nc1cc[nH]c(=O)c1-c1nc2cc3c(cc2[nH]1)C(=O)N(CCCN1CCCC1)C3=O (centres unmarked) |  | 250 to 1000 nM

Source: patent US9249147B2, “Tyrosine kinase inhibitors” (CHEMBRIDGE CORPORATION, priority 2008, dated 2016)
